# ChEMBL document CHEMBL3621040, “Dicarabrol, a new dimeric sesquiterpene from Carpesium abrotanoides L” (Bioorg Med Chem Lett, 2015)
# Tests used:
# NCI-H1975 = experiment: Cytotoxicity against human NCI-H1975 cells after 72 hrs by CCK8 assay; assay type: functional, cell-based; settings: NCI-H1975, 72 h
# HL-60 = experiment: Cytotoxicity against human HL60 cells after 72 hrs by CCK8 assay; assay type: functional, cell-based; settings: HL-60, 72 h
# [1] = Cytotoxicity against human SGC7901 cells after 72 hrs by CCK8 assay; assay type: functional, cell-based; settings: SGC-7901, 72 h
# DU-145 = experiment: Cytotoxicity against human DU145 cells after 72 hrs by CCK8 assay; assay type: functional, cell-based; settings: DU-145, 72 h
# Influenza A virus [2] = experiment: Antiviral activity against Influenza A virus H3N2 infected in MDCK cells assessed as protection against virus-induced cytopathic effect after 48 hrs by crystal violet staining; assay type: functional, organism-based
# U-937 = experiment: Cytotoxicity against human U937 cells after 72 hrs by CCK8 assay; assay type: functional, cell-based; settings: U-937, 72 h
# MOLT-4 = experiment: Cytotoxicity against human MOLT4 cells after 72 hrs by CCK8 assay; assay type: functional, cell-based; settings: MOLT-4, 72 h
# HeLa = experiment: Cytotoxicity against human HeLa cells after 72 hrs by CCK8 assay; assay type: functional, cell-based
# [3] = tested on: Mycobacterium tuberculosis; experiment: Antimycobacterial activity against Mycobacterium tuberculosis H37Ra after 7 days by alamar blue dye assay; assay type: functional; settings: 168 h
# A549 = experiment: Cytotoxicity against human A549 cells after 72 hrs by CCK8 assay; assay type: functional, cell-based; settings: A549, 72 h
# Influenza A virus [4] = experiment: Antiviral activity against Influenza A virus H1N1 infected in MDCK cells assessed as protection against virus-induced cytopathic effect after 48 hrs by crystal violet staining; assay type: functional, organism-based
# MCF7 = experiment: Cytotoxicity against human MCF7 cells after 72 hrs by CCK8 assay; assay type: functional, cell-based; settings: MCF7, 72 h
# K562 = experiment: Cytotoxicity against human K562 cells after 72 hrs by CCK8 assay; assay type: functional, cell-based; settings: K562, 72 h
Compound,IC50 (NCI-H1975),IC50 (HL-60),IC50 [1],IC50 (DU-145),IC50 (Influenza A virus [2]),IC50 (U-937),IC50 (MOLT-4),IC50 (HeLa),MIC [3],IC50 (A549),IC50 (Influenza A virus [4]),IC50 (MCF7),IC50 (K562)
C=C1C(=O)O[C@@H]2C[C@]3(C)[C@@H](CCC(C)O)C[C@@]4(C(=O)O[C@@H]5C[C@@H]6[C@@H](CC[C@H](C)O)[C@@H]6C[C@@H]54)[C@@H]3C[C@H]12 (stereo not given in full),1400 nM,100 nM,710 nM,310 nM,30000 nM,150 nM,1300 nM,610 nM,3.7 µM,2700 nM,15900 nM,3300 nM,1200 nM
C=C1C(=O)O[C@H]2C[C@@]3(C)O[C@@H]3CC[C@@]3(C)O[C@@H]3C[C@H]12,5400 nM,180 nM,6400 nM,380 nM,11600 nM,210 nM,1200 nM,1000 nM,6 µM,2000 nM,10800 nM,4100 nM,1700 nM
NNC(=O)c1ccncc1 [ISONIAZID],–,–,–,–,–,–,–,–,2 µM,–,–,–,–
CCOC(=O)C1=C[C@@H](OC(CC)CC)[C@H](NC(C)=O)[C@@H](N)C1 [OSELTAMIVIR],–,–,–,–,15 nM,–,–,–,–,–,25 nM,–,–
CC(=O)O[C@H]1C(=O)[C@@]2(C)[C@H]([C@H](OC(=O)c3ccccc3)[C@]3(O)C[C@H](OC(=O)[C@H](O)[C@@H](NC(=O)c4ccccc4)c4ccccc4)C(C)=C1C3(C)C)[C@]1(OC(C)=O)CO[C@@H]1C[C@@H]2O [PACLITAXEL],2800 nM,3800 nM,9800 nM,3100 nM,–,2100 nM,2700 nM,–,–,2100 nM,–,–,3800 nM
C=C1C(=O)O[C@H]2C[C@@H](C)[C@@H]3CC[C@H](O)[C@@]3(C)C[C@H]12 [PSEUDOGUAIANOLIDE],13000 nM,2400 nM,22000 nM,3100 nM,47300 nM,2200 nM,5500 nM,6000 nM,7.6 µM,6200 nM,29300 nM,11000 nM,17000 nM
